Values quoted from earlier work as cited in patent US10507185B2, “Composite structural material and pharmaceutical composition thereof” (INNOVACO PHARMACEUTICALS, INC, priority 2013, dated 2019).

pKa value: 4.6
Compound: CC(C)n1c(/C=C/C(O)CC(O)CC(=O)O)c(-c2ccc(F)cc2)c2ccccc21 (stereo not shown) [Fluvastatin, fluvastatin]
